Legend:
HBsAg [1] = assay: In vitro combination study, HBsAg CLIA, MacSynergy II; type: cell-based, hepatitis B virus; set-up: MacSynergy volume: unit not given here; settings: for Additive % Inhibition (HBsAg) versus negative control / Avg % Inhibition (HBsAg) versus negative control: LNP-1 0.0025, 0.00079, 0.00025, 7.9E−05, 2.5E−05, 0 μM; for Additive % Inhibition versus negative control / MacSynergy volume: LNP-2 0 μM; for MacSynergy volume: 99.99% confidence interval
Procedure: In vitro combination studies were conducted using the method of Prichard & Shipman, 1990, Antiviral Res. 14(4-5):181-205, and Prichard, et al., MacSynergy II). The HepG2.2.15 cell culture system is a cell line derived from human hepatoblastoma HepG2 cells, that have been stably transfected with the adw2-subtype HBV genome (Sells, et al., 1987, Proc. Natl. Acad. Sci. U.S.A 84:1005-1009). HepG2.2.15 cells secrete Dane-like viral particles, produce HBV DNA, and produce the viral proteins, HBeAg and HBsAg.
Non-limiting examples of HBV RNA destabilizers are Compound A and Compound B. The EC50 values of these agents are shown in Table 12. Although inhibition of HBV DNA, RNA and proteins can be determined in the presence of the compounds of the invention and LNPs (both referred to herein as “agents”), the assay that can quantitatively measure the level of HBsAg was used in this study. To test the agent combinations, HepG2.2.15 (30,000 cells/well) were plated in 96 well tissue-culture treated microtiter plates in DMEM+L-Glutamine medium supplemented with 1% penicillin-streptomycin, 20 μg/mL geneticin (G418), 10% fetal bovine serum, and incubated in a humidified incubator at 37° C. and 5% CO2 overnight. The next day, the cells were replenished with fresh medium followed by the addition of compound of the invention (dissolved in 100% DMSO), and LNP (dissolved in 100% RPMI medium). The agents were added to cells in a checkerboard fashion. The microtiter cell plates were incubated for a total duration of 6 days in a humidified incubator at 37° C. and 5% CO2. On the 3rd day of incubation, the cells were replenished with fresh medium and agents. The serial dilutions spanned concentration ranges respective to the EC50 value of each agent, with the final DMSO concentration of the assay being 0.5%. In addition to combination testing of the agents in a checkerboard fashion, the compound and LNP were also tested alone.
Untreated positive control samples (0.5% DMSO in media) were included on each plate in multiple wells. Following a 6 day-incubation, media was removed from treated cells for use in an HBsAg chemiluminescence immunoassay (CLIA) (Autobio Diagnostics, Cat No. CL0310-2). An HBsAg standard curve was generated to verify that the levels of HBsAg quantification were within the detection limits of the assay. The remaining inhibitor-treated cells were assessed for cytotoxicity by determination of the intracellular adenosine triphosphate (ATP) using a Cell-Titer Glo reagent (Promega) as per manufacturers instructions and by microscopic analysis of the cells throughout the duration of inhibitor treatment. Cell viability was calculated as a percentage of the untreated positive control wells.
The plates were read using an EnVision multimode plate reader (PerkinElmer Model 2104). […] The RLU data from the single agent treated cells were analyzed using XL-Fit module in Microsoft Excel to determine EC50 values using a 4-parameter curve fitting algorithm.

HBsAg [2] = assay: HBsAg assay; type: cell-based, hepatitis B virus; settings: Hepatitis B virus, HepG2.2.15, 144 h, read-out: sAg EC50, μM, HepG2.2.15 cells, day 6
How it was run: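 HepG2.2.15 cells were treated with serially diluted compounds (0.5% DMSO), with medium and compound renewed after 2-3 days. Secreted HBsAg measured at day 6 by chemiluminescence immunoassay; EC50 from dose-response curves. Viability assessed in parallel by CellTiter-Glo.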

Compound: COCCCOc1cc2c(cc1Cl)-c1cc(=O)c(C(=O)O)cn1[C@H](C(C)C)CO2 [Compound B]
- Additive % Inhibition (HBsAg) versus negative control (HBsAg [1]; Compound B 0.0002 μM): 19.99%
- Avg % Inhibition (HBsAg) versus negative control (HBsAg [1]; Compound B 0.0002 μM): 19.99%
- Additive % Inhibition (HBsAg) versus negative control (HBsAg [1]; Compound B 0.0006 μM): 22.24%
- Avg % Inhibition (HBsAg) versus negative control (HBsAg [1]; Compound B 0.0006 μM): 22.24%
- Additive % Inhibition (HBsAg) versus negative control (HBsAg [1]; Compound B 0.002 μM): 28.73%
- Avg % Inhibition (HBsAg) versus negative control (HBsAg [1]; Compound B 0.002 μM): 28.73%
- Additive % Inhibition (HBsAg) versus negative control (HBsAg [1]; Compound B 0.006 μM): 39.16%
- Avg % Inhibition (HBsAg) versus negative control (HBsAg [1]; Compound B 0.006 μM): 39.16%
- Additive % Inhibition (HBsAg) versus negative control (HBsAg [1]; Compound B 0.02 μM): 61.93%
- Avg % Inhibition (HBsAg) versus negative control (HBsAg [1]; Compound B 0.02 μM): 61.93%
- Additive % Inhibition (HBsAg) versus negative control (HBsAg [1]; Compound B 0.06 μM): 80.51%
- Avg % Inhibition (HBsAg) versus negative control (HBsAg [1]; Compound B 0.06 μM): 80.51%
- Additive % Inhibition (HBsAg) versus negative control (HBsAg [1]; Compound B 0.20 μM): 89.95%
- Avg % Inhibition (HBsAg) versus negative control (HBsAg [1]; Compound B 0.20 μM): 89.95%
- Additive % Inhibition (HBsAg) versus negative control (HBsAg [1]; Compound B 0.63 μM): 92.6%
- Avg % Inhibition (HBsAg) versus negative control (HBsAg [1]; Compound B 0.63 μM): 92.6%
- Additive % Inhibition (HBsAg) versus negative control (HBsAg [1]; Compound B 2 μM): 93.51%
- Avg % Inhibition (HBsAg) versus negative control (HBsAg [1]; Compound B 2 μM): 93.51%
- Additive % Inhibition versus negative control (HBsAg [1]; Compound B 0.0002 μM): 16.15%
- MacSynergy volume (HBsAg [1]; Compound B 0.0002 μM): 0
- Additive % Inhibition versus negative control (HBsAg [1]; Compound B 0.0006 μM): 18.39%
- MacSynergy volume (HBsAg [1]; Compound B 0.0006 μM): 0
- Additive % Inhibition versus negative control (HBsAg [1]; Compound B 0.002 μM): 21.16%
- MacSynergy volume (HBsAg [1]; Compound B 0.002 μM): 0
- Additive % Inhibition versus negative control (HBsAg [1]; Compound B 0.006 μM): 31.66%
- MacSynergy volume (HBsAg [1]; Compound B 0.006 μM): 0
- Additive % Inhibition versus negative control (HBsAg [1]; Compound B 0.02 μM): 51.93%
- MacSynergy volume (HBsAg [1]; Compound B 0.02 μM): 0
- Additive % Inhibition versus negative control (HBsAg [1]; Compound B 0.06 μM): 74.92%
- MacSynergy volume (HBsAg [1]; Compound B 0.06 μM): 0
- Additive % Inhibition versus negative control (HBsAg [1]; Compound B 0.20 μM): 86.86%
- MacSynergy volume (HBsAg [1]; Compound B 0.20 μM): 0
- Additive % Inhibition versus negative control (HBsAg [1]; Compound B 0.63 μM): 91.2%
- MacSynergy volume (HBsAg [1]; Compound B 0.63 μM): 0
- Additive % Inhibition versus negative control (HBsAg [1]; Compound B 2 μM): 92.52%
- MacSynergy volume (HBsAg [1]; Compound B 2 μM): 0

Compound: COCCCOc1cc2c(nc1OC)-c1cc(=O)c(C(=O)NNC(C)=O)cn1[C@H](C(C)C)C2 [Example 154, (6S)—N′-Acetyl-6-isopropyl-2-methoxy-3-(3-methoxypropoxy)-10-oxo-5H,6H-pyrido[1,2-h]1,7-naphthyridine-9-carbohydrazide]
- EC50 (HBsAg [2]): 0.029 µM

Compound: COCCCOc1cc2c(nc1Cl)-c1cc(=O)c(C(=O)O)cn1[C@H](CCO)CO2 [Example 80, (R)-2-Chloro-7-(2-hydroxyethyl)-3-(3-methoxypropoxy)-11-oxo-6,7-dihydro-11H-dipyrido[1,2-d:2′,3′-f][1,4]oxazepine-10-carboxylic acid]
- EC50 (HBsAg [2]): 0.26 µM

Compound: COCCCOc1cc2c(cc1Cl)-c1cc(=O)c(NC(=O)OC)cn1C(C(C)(C)C)C2 (centres unmarked) [Example 122, Methyl N-[6-tert-butyl-10-chloro-9-(3-methoxypropoxy)-2-oxo-6H,7H-pyrido[2,1-a]isoquinolin-3-yl]carbamate]
- EC50 (HBsAg [2]): 17 µM

Compound: CCC1COc2cc(OC)c(Cl)cc2-c2cc(=O)c(C(=O)O)cn21 (centres unmarked) [Example 8, 2-Chloro-7-ethyl-3-methoxy-11-oxo-6,7-dihydro-11H-benzo[f]pyrido[1,2-d][1,4]oxazepine-10-carboxylic acid]
- EC50 (HBsAg [2]): 0.42 µM

Compound: COCCCOc1cc2c(nc1OC)-c1cc(=O)c(C(=O)O)cn1[C@H](C(C)C)CC2 [Example 168, (S)-7-Isopropyl-2-methoxy-3-(3-methoxypropoxy)-11-oxo-5,6,7,11-tetrahydrodipyrido[1,2-a:2′,3′-c]azepine-10-carboxylic acid]
- EC50 (HBsAg [2]): 0.071 µM

Source: patent US11013726B2 (Arbutus Biopharma Corporation, priority 2016, dated 2021)
